Source: the NIST ThermoML archive (doi:10.1016/j.jct.2004.07.018)
Numbers after ± are expanded uncertainties.

Assay: mn = molality of the nth substance listed, in mol/kg
Details: 101.3 kPa, Liquid, buoyancy

CCOS(=O)(=O)[O-].CCn1cc[n+](C)c1 [1-ethyl-3-methylimidazolium ethyl sulfate] + O
Details	mass density [kg/m3]
278.15 K, m1 = 0.2224	1010 ± 5.7
278.15 K, m1 = 0.4472	1019.6 ± 5.8
278.15 K, m1 = 0.6739	1028.5 ± 5.8
278.15 K, m1 = 0.903	1037.1 ± 5.9
278.15 K, m1 = 1.132	1045.3 ± 5.9
278.15 K, m1 = 1.364	1053.1 ± 6
278.15 K, m1 = 1.598	1060.5 ± 6
278.15 K, m1 = 1.835	1067.6 ± 6
278.15 K, m1 = 2.072	1074.2 ± 6.1
278.15 K, m1 = 2.313	1080.5 ± 6.1
278.15 K, m1 = 2.554	1086.4 ± 6.1
278.15 K, m1 = 2.798	1092.2 ± 6.2
278.15 K, m1 = 3.044	1098.2 ± 6.2
283.15 K, m1 = 0.2224	1009.6 ± 5.7
283.15 K, m1 = 0.4472	1018.9 ± 5.8
283.15 K, m1 = 0.6739	1027.7 ± 5.8
283.15 K, m1 = 0.903	1036.1 ± 5.9
283.15 K, m1 = 1.132	1044 ± 5.9
283.15 K, m1 = 1.364	1051.5 ± 5.9
283.15 K, m1 = 1.598	1058.8 ± 6
283.15 K, m1 = 1.835	1065.6 ± 6
283.15 K, m1 = 2.072	1072 ± 6.1
283.15 K, m1 = 2.313	1078.2 ± 6.1
283.15 K, m1 = 2.554	1084 ± 6.1
283.15 K, m1 = 2.798	1089.6 ± 6.2
283.15 K, m1 = 3.044	1095 ± 6.2
288.15 K, m1 = 0.2224	1008.7 ± 5.7
288.15 K, m1 = 0.4472	1017.8 ± 5.8
288.15 K, m1 = 0.6739	1026.5 ± 5.8
288.15 K, m1 = 0.903	1034.8 ± 5.8
288.15 K, m1 = 1.132	1042.6 ± 5.9
288.15 K, m1 = 1.364	1050.1 ± 5.9
288.15 K, m1 = 1.598	1057.2 ± 6
288.15 K, m1 = 1.835	1063.8 ± 6
288.15 K, m1 = 2.072	1070.2 ± 6
288.15 K, m1 = 2.313	1076.2 ± 6.1
288.15 K, m1 = 2.554	1082 ± 6.1
288.15 K, m1 = 2.798	1087.4 ± 6.1
288.15 K, m1 = 3.044	1092.5 ± 6.2
293.15 K, m1 = 0.2224	1007.6 ± 5.7
293.15 K, m1 = 0.4472	1016.7 ± 5.7
293.15 K, m1 = 0.6739	1025.2 ± 5.8
293.15 K, m1 = 0.903	1033.3 ± 5.8
293.15 K, m1 = 1.132	1041 ± 5.9
293.15 K, m1 = 1.364	1048.3 ± 5.9
293.15 K, m1 = 1.598	1055.2 ± 6
293.15 K, m1 = 1.835	1061.9 ± 6
293.15 K, m1 = 2.072	1068.1 ± 6
293.15 K, m1 = 2.313	1074.1 ± 6.1
293.15 K, m1 = 2.554	1079.6 ± 6.1
293.15 K, m1 = 2.798	1085 ± 6.1
293.15 K, m1 = 3.044	1090 ± 6.2
298.15 K, m1 = 0.2224	1006.3 ± 5.7
298.15 K, m1 = 0.4472	1015 ± 5.7
298.15 K, m1 = 0.6739	1023.3 ± 5.8
298.15 K, m1 = 0.903	1031.2 ± 5.8
298.15 K, m1 = 1.132	1038.7 ± 5.9
298.15 K, m1 = 1.364	1045.7 ± 5.9
298.15 K, m1 = 1.598	1052.5 ± 5.9
298.15 K, m1 = 1.835	1058.9 ± 6
298.15 K, m1 = 2.072	1064.9 ± 6
298.15 K, m1 = 2.313	1070.6 ± 6.1
298.15 K, m1 = 2.554	1076.1 ± 6.1
298.15 K, m1 = 2.798	1081.3 ± 6.1
298.15 K, m1 = 3.044	1086.2 ± 6.1
303.15 K, m1 = 0.2224	1004.7 ± 5.7
303.15 K, m1 = 0.4472	1013.3 ± 5.7
303.15 K, m1 = 0.6739	1021.6 ± 5.8
303.15 K, m1 = 0.903	1029.3 ± 5.8
303.15 K, m1 = 1.132	1036.8 ± 5.9
303.15 K, m1 = 1.364	1043.9 ± 5.9
303.15 K, m1 = 1.598	1050.6 ± 5.9
303.15 K, m1 = 1.835	1057 ± 6
303.15 K, m1 = 2.072	1062.9 ± 6
303.15 K, m1 = 2.313	1068.6 ± 6
303.15 K, m1 = 2.554	1074.1 ± 6.1
303.15 K, m1 = 2.798	1079.4 ± 6.1
303.15 K, m1 = 3.044	1084.3 ± 6.1
308.15 K, m1 = 0.2224	1002.9 ± 5.7
308.15 K, m1 = 0.4472	1011.6 ± 5.7
308.15 K, m1 = 0.6739	1019.6 ± 5.8
308.15 K, m1 = 0.903	1027.7 ± 5.8
308.15 K, m1 = 1.132	1034.6 ± 5.8
308.15 K, m1 = 1.364	1041.5 ± 5.9
308.15 K, m1 = 1.598	1048.3 ± 5.9
308.15 K, m1 = 1.835	1054.6 ± 6
308.15 K, m1 = 2.072	1060.5 ± 6
308.15 K, m1 = 2.313	1066.2 ± 6
308.15 K, m1 = 2.554	1071.7 ± 6.1
308.15 K, m1 = 2.798	1076.8 ± 6.1
308.15 K, m1 = 3.044	1081.8 ± 6.1
313.15 K, m1 = 0.2224	1001.1 ± 5.7
313.15 K, m1 = 0.4472	1009.6 ± 5.7
313.15 K, m1 = 0.6739	1017.9 ± 5.8
313.15 K, m1 = 0.903	1025.6 ± 5.8
313.15 K, m1 = 1.132	1032.8 ± 5.8
313.15 K, m1 = 1.364	1039.7 ± 5.9
313.15 K, m1 = 1.598	1046.4 ± 5.9
313.15 K, m1 = 1.835	1052.8 ± 5.9
313.15 K, m1 = 2.072	1058.8 ± 6
313.15 K, m1 = 2.313	1064.4 ± 6
313.15 K, m1 = 2.554	1069.8 ± 6
313.15 K, m1 = 2.798	1074.9 ± 6.1
313.15 K, m1 = 3.044	1079.8 ± 6.1
318.15 K, m1 = 0.2224	999 ± 5.6
318.15 K, m1 = 0.4472	1007.5 ± 5.7
318.15 K, m1 = 0.6739	1015.6 ± 5.7
318.15 K, m1 = 0.903	1023.1 ± 5.8
318.15 K, m1 = 1.132	1030.4 ± 5.8
318.15 K, m1 = 1.364	1037.3 ± 5.9
318.15 K, m1 = 1.598	1043.9 ± 5.9
318.15 K, m1 = 1.835	1050.2 ± 5.9
318.15 K, m1 = 2.072	1056.1 ± 6
318.15 K, m1 = 2.313	1061.7 ± 6
318.15 K, m1 = 2.554	1067.1 ± 6
318.15 K, m1 = 2.798	1072.3 ± 6.1
318.15 K, m1 = 3.044	1077.1 ± 6.1
323.15 K, m1 = 0.2224	996.6 ± 5.6
323.15 K, m1 = 0.4472	1005.1 ± 5.7
323.15 K, m1 = 0.6739	1013 ± 5.7
323.15 K, m1 = 0.903	1020.5 ± 5.8
323.15 K, m1 = 1.132	1027.9 ± 5.8
323.15 K, m1 = 1.364	1034.7 ± 5.8
323.15 K, m1 = 1.598	1041.3 ± 5.9
323.15 K, m1 = 1.835	1047.7 ± 5.9
323.15 K, m1 = 2.072	1053.6 ± 6
323.15 K, m1 = 2.313	1059.4 ± 6
323.15 K, m1 = 2.554	1064.8 ± 6
323.15 K, m1 = 2.798	1070 ± 6
323.15 K, m1 = 3.044	1074.9 ± 6.1
328.15 K, m1 = 0.2224	994.1 ± 5.6
328.15 K, m1 = 0.4472	1002.6 ± 5.7
328.15 K, m1 = 0.6739	1010.6 ± 5.7
328.15 K, m1 = 0.903	1018.1 ± 5.8
328.15 K, m1 = 1.132	1025.3 ± 5.8
328.15 K, m1 = 1.364	1032.1 ± 5.8
328.15 K, m1 = 1.598	1038.7 ± 5.9
328.15 K, m1 = 1.835	1045.1 ± 5.9
328.15 K, m1 = 2.072	1051.1 ± 5.9
328.15 K, m1 = 2.313	1056.8 ± 6
328.15 K, m1 = 2.554	1062.4 ± 6
328.15 K, m1 = 2.798	1067.4 ± 6
328.15 K, m1 = 3.044	1072.7 ± 6.1
333.15 K, m1 = 0.2224	991.4 ± 5.6
333.15 K, m1 = 0.4472	999.8 ± 5.7
333.15 K, m1 = 0.6739	1007.7 ± 5.7
333.15 K, m1 = 0.903	1015.4 ± 5.7
333.15 K, m1 = 1.132	1022.7 ± 5.8
333.15 K, m1 = 1.364	1029.7 ± 5.8
333.15 K, m1 = 1.598	1036.4 ± 5.9
333.15 K, m1 = 1.835	1042.7 ± 5.9
333.15 K, m1 = 2.072	1048.9 ± 5.9
333.15 K, m1 = 2.313	1054.9 ± 6
333.15 K, m1 = 2.554	1060.4 ± 6
333.15 K, m1 = 2.798	1065.8 ± 6
333.15 K, m1 = 3.044	1070.9 ± 6.1
